Values joined by “and” are separate entries in the source; they are usually repeats but may differ in a detail not shown here. Identical values can stand only once. Counter-ions that a name gives are not always drawn.
Assays:
Type in all cases: physicochemical
[1] = Colchicine release from polymer coating into phosphate buffered saline (UV/Vis absorbance at 350 nm)
Text: The stent was placed in a tube containing 4 mls of Phosphate Buffered Saline solution (prepared from tablets supplied by Sigma-Aldrich Chemical Co by dissolving 1 tablet in 200 mls of deionised water) and agitated by rolling. The saline solution was sampled at intervals and its colchicine content determined by monitoring its absorbance at 350 nm using UV/Vis Spectrometry. A calibration plot for various concentrations of Colchicine (4 to 99 micrograms) in solution against the solution's absorbance at 350 nm was constructed to convert sample's release absorbance into drug release values in micrograms per stent. The graph of Colchicine released against release time is plotted in FIG. 3.
1. Stainless steel strips approx 6-8 mm in width were cleaned in IPA with ultrasound for 15 mins, followed by drying at 130° C. for 30 mins 2. The plate was functionalised as in Example 2. 3. The amino group on the functionalised steel was then reacted with the ispcyano group of 3-(triethoxysilyl)isocyanate to form a urea linkage, yielding triethoxysilyl groups on the surface. This was performed by adding the stainless steel plate to a solution of 3-(triethoxysilyl) isocyanate (9 ml) in anhydrous toluene (219 ml). […] The colchicine was released by placing the strips in 4 mls of phosphate buffered saline (PBS) solution, placing on a spiromix and measuring the absorbance at 350 nm over a period of 100 hours 15. […]

[2] = Eosin Y coupling to amine groups of TMSPEA functionalised surface and release (absorbance at 517 nm)
Experimental: Once rinsing had been completed, the sample was placed in a 50 ml sample tube and 4 mls of 0.1 M NaOH was pipetted into it, the sample tube was placed on the Spiramix and it was rolled for—5 minutes. 20 mls of deionised water was then pipetted into the solution and the absorbance of the resulting solution was recorded at 517 nm using a spectrophotometer. The absorbance value was then converted into an amount of eosin Y attached to the sample by using a calibration graph of absorbance readings for known amounts of eosin Y sodium salt. The absorbance reading for the release solution was 0.83 at 517 nm corresponding to 205 μg of eosinY.
All six samples were placed in sample tubes (100*16 mm R. B. tubes clarified polypropylene, Jencons PLC) and rolled on the Spiramix (Denley Spiramix 5) in approximately 4-6 mls of a 0.4% aqueous solution of eosin Y sodium salt (Sigma Aldrich chemical co) for approximately 1 hour.
Once rinsing had been completed, two samples from the ethanol rinsed and unrinse, d sets were placed in 50 ml sample tubes and 4 mls of 0.1 M NaOH was pipetted into each. The sample tubes were placed on the Spiramix and rolled for—5 minutes. 20 mls of deionised water was then pipetted into each sample and the absorbance of the resulting solution was recorded at 517 nm using a Jenway 6305 W/V is spectrophotometer. The values recorded were then converted into amounts of eosin Y attached to the samples by using a calibration graph of absorbance readings for known amounts of eosin Y sodium salt.
After drying for 2 hours at 50° C. the sample was stained with Eosin Y solution, visually examined and then released as detailed in the Eosin Y Coupling section of Example 6.

[3] = Mitoxantrone coupling and release from coated device (absorbance of release solution at 660 nm)
[4] = as above; remark: listed apart in the source
Experimental: A 0.01% solution of mitoxantrone (Sigma Aldrich Chemical Co) was made up in deionised water. The samples are each immersed in 4 mls of the solution and left rolling on a Spiramix (Denley Spiramix 5) for—17 hours (Samples placed in 100*16 mm R. B. tube clarified polypropylene supplied by Jencons PLC.). After this time they were rinsed in deionised water until there was no evidence of the mitoxantrone being removed in the water. 4 mls of phosphate buffered saline solution (PBS) was then pipetted into a clean sample tube and the sample added. The samples were left in this solution for 1 hour on the Spiramix, after which absorbances were recorded by spectrophotometer at 660 nm. The solutions were then transferred back into the appropriate sample tube and 5 drops of 1M hydrochloric acid added from a dropping pipette. The samples were left for 10 minutes rolling on the Spiramix, after which an absorbance reading was recorded. Further readings were obtained after 1 hour or more to give a value for complete release of mitoxantrone. The absorbances recorded for the release solutions at 660 nm gave an indication of the amount of mitoxantrone attached to the carboxymethylcellulose coating on each sample. By use of a calibration curve plotting known concentrations of mitoxantrone solutions against the absorbance of the solution at 660 nm, the mitoxantrone concentration of the release solution was determined and from this the amount of mitoxantrone attached to each device. An absorbance of 0.09 at 660 nm was obtained for the 1 hour release in phosphate buffered saline solution, and an absorbance of 0.17 for the complete release of Mitoxantrone. This equates to approximately 31 micrograms of mitoxantrone attached to the stent.

[5] = Example 2: stent coupled with poly(acrylic acid) partial sodium salt, Mw 2000
[6] = Example 9: heat exchange tubes coupled with polyacrylic acid sodium salt, Mw ca. 30,000

For COc1cc2c(c(OC)c1OC)-c1ccc(OC)c(=O)cc1[C@@H](NC(C)=O)CC2 [colchicine], the “Release of drug into phosphate buffered saline solution” value ([1]; Coating of poly(vinyl butyral-co-vinyl alcohol-co-vinyl acetate) and colchicine without poly(ethylene glycol)) was “does not release the drug into phosphate buffered saline solution” and the “Total amount of drug released after sonication in 2-propanol” value ([1]; Example 14: strip coated with poly(vinyl butyral-co-vinyl alcohol-co-vinyl acetate) + poly(ethylene glycol) + colchicine, after 100 hours in PBS) was 320 u. g.

For O=C1OC2(c3ccccc31)c1cc(Br)c(O)c(Br)c1Oc1c2cc(Br)c(O)c1Br [eosin Y, eosin Y sodium salt], the “Eosin Y attached to the sample” value ([2]; Example 6: TMSPEA functionalised tube (toluene, 30 minutes), calibration graph) was 205 µg, the “Absorbance of release solution at 517 nm” value ([2]; Example 6: TMSPEA functionalised tube (toluene, 30 minutes), released in 0.1 M NaOH) was 0.83 and the “Absorbance of release solution at 517 nm” value ([2]; Example 15: tube functionalised with TMSPEA in tetrahydrofuran instead of toluene) was 0.19.

For O=C1c2c(O)ccc(O)c2C(=O)c2c(NCCNCCO)ccc(NCCNCCO)c21 [mitoxantrone], the “Absorbance at 660 nm, released 10 minutes in PBS with 5 drops 1 M HCl” value [3, 5] was 0.037, the “Mitoxantrone attached to the stent” value [3, 5] was 7 micrograms and the “Mitoxantrone attached to the heparin coated devices (complete release values)” value ([3]; Example 3: heparin coupled stainless steel heat exchange tubes) was 31 micrograms and 36 micrograms. For the same molecule, the “Mitoxantrone attachment of released stent” value ([3]; Example 7: commercially available stent, heparin/EDC Reaction Solution 1 of Example 6) was 9 micrograms, the “Absorbance at 660 nm, complete release of mitoxantrone” value [3, 6] was 0.33 and the “Mitoxantrone corresponding to complete release absorbance” value [3, 6] was 60 micrograms. For the same molecule, the “Absorbance at 660 nm, complete release of mitoxantrone” value ([4]; Example 1: CMC coupled stent, PBS + 1M HCl) was 0.17, the “Mitoxantrone attached to the stent” value ([4]; Example 1: CMC coupled stent, from calibration curve) was “approximately 31 micrograms” and the “Absorbance at 660 nm, 1 hour release in phosphate buffered saline solution” value ([4]; Example 1: stainless steel stent, TMSPEA functionalised, carboxymethylcellulose coupled) was 0.09.

Reference: patent publication US20100247931A1, “TREATING SURFACES TO ENHANCE BIO-COMPATIBILITY” (priority 2001, published 2010)
